pIC50: −log10 of the molar value. The source made the active and inactive calls. The rule behind the calls is not given here.
Columns and labels:
HCT-116 [1] = assay: Antitumor activity against human HCT-116 cells xenografted in BALB/c mouse assessed as tumor growth inhibition at 10 mg/kg,po administrated for 2 weeks relative to control; format: functional; conditions: HCT-116, 336 h, read-out: TGI
HCT-116 [2] = assay: Antitumor activity against human HCT-116 cells xenografted in BALB/c mouse assessed as change in cell morphology at 10 mg/kg,po administrated for 2 weeks by hematoxylin and eosin staining based analysis; format: functional, organism-based
HCT-116 [3] = assay: Antitumor activity against human HCT-116 cells xenografted in BALB/c mouse assessed as chromatin condensation at 10 mg/kg,po administrated for 2 weeks by hematoxylin and eosin staining based analysis; format: functional, organism-based
[4] = Toxicity in BALB/c mouse xenografted with human HCT-116 cells assessed as histopathological change in kidney at 10 mg/kg,po administrated for 2 weeks by hematoxylin and eosin staining based analysis; format: organism-based; conditions: in vivo, 336 h
[5] = Toxicity in BALB/c mouse xenografted with human HCT-116 cells assessed as increase in serum AST level at 10 mg/kg,po administrated for 2 weeks; format: organism-based; conditions: in vivo, 336 h
[6] = Antiproliferative activity against human Intestinal epithelial cell assessed as inhibition of cell growth incubated for 48 hrs by MTT assay; format: toxicity, cell-based; conditions: human intestinal epithelial cells
HCT-116 [7] = assay: cells; conditions: Homo sapiens, HCT-116, 48 h
Description: Antiproliferative activity against human HCT-116 cells assessed as inhibition of cell growth incubated for 48 hrs by MTT assay

SW480 = assay: cells; conditions: Homo sapiens, SW480, 48 h
Description: Antiproliferative activity against human SW480 cells assessed as inhibition of cell growth incubated for 48 hrs by MTT assay

RKO = assay: cells; conditions: Homo sapiens, 48 h
Description: Antiproliferative activity against human RKO cells assessed as inhibition of cell growth incubated for 48 hrs by MTT assay

BaF3 = assay: Antiproliferative activity against mouse BaF3 transfected with FGFR4 assessed as inhibition of cell growth incubated for 72 hrs by CCK-8 assay; format: toxicity, cell-based; conditions: BaF3, 72 h

Row | pIC50 (HCT-116 [7]) | pIC50 (SW480) | pIC50 (RKO) | Structure (SMILES) | inhibition in vivo at 10 mg/kg (HCT-116 [1]) [%] | Activity (HCT-116 [2]) | Activity (HCT-116 [3]) | Activity [4] | Activity [5] | IC50 at 48 h [6] [µM] | pIC50 (BaF3)
1 |  |  |  | CNC(=O)c1c(C)oc2cc(Oc3ncnc4cc(OC)c(OC)cc34)ccc12 [FRUQUINTINIB] | 63.7 | Active | Active | Toxic | Toxic |  | 
2 | 5.03 | 4.99 | 4.95 | COc1cc(OC)c(Cl)c(-c2cc3cnc(Nc4c(C)cccc4N4CCCCC4)cc3n(CCCN3CCCCC3)c2=O)c1Cl |  |  |  |  |  | 25.1 | 
3 | 4.97 | 4.89 | 4.94 | C=CC(=O)NCCCn1c(=O)c(-c2cc(OC)cc(OC)c2)cc2cnc(Nc3c(C)cccc3N3CCN(C)CC3)cc21 |  |  |  |  |  | 21.3 | 
4 | 5.05 | 4.90 | 4.71 | C=CC(=O)Nc1cccc(C)c1Nc1ncc2cc(-c3c(Cl)c(OC)cc(OC)c3Cl)ccc2n1 |  |  |  |  |  | 18.4 | 8.29
5 | 4.92 | 4.64 | 5.03 | COc1cc(OC)cc(-c2cc3cnc(Nc4c(C)cccc4N4CCOCC4)cc3n(CCCO)c2=O)c1 |  |  |  |  |  | 19.5 | 
6 | 5.14 | 4.89 | 5.03 | C=CC(=O)Nc1cccc(C)c1Nc1cc2c(cn1)cc(-c1c(Cl)c(OC)cc(OC)c1Cl)c(=O)n2CCCO |  |  |  |  |  | 24 | 
